Laboratory results taken from PubChem BioAssay AID2165 (The Scripps Research Institute Molecular Screening Center, 2009).
Calls of active or inactive are those of the source. Rule as the data show it: active = IC50 below about 9 µM; inactive = the rest.

Target: Tyrosine-protein kinase JAK2 (Homo sapiens) (UniProt O60674)
Assay: JAK2V617F kinase, IRF1 reporter and Ba/F3 cytotoxicity panel, late-stage follow-up, HEL and Ba/F3 cells (AID 2165)

Sequence of Tyrosine-protein kinase JAK2 (Homo sapiens) (O60674 whole entry, looked up, change not shown): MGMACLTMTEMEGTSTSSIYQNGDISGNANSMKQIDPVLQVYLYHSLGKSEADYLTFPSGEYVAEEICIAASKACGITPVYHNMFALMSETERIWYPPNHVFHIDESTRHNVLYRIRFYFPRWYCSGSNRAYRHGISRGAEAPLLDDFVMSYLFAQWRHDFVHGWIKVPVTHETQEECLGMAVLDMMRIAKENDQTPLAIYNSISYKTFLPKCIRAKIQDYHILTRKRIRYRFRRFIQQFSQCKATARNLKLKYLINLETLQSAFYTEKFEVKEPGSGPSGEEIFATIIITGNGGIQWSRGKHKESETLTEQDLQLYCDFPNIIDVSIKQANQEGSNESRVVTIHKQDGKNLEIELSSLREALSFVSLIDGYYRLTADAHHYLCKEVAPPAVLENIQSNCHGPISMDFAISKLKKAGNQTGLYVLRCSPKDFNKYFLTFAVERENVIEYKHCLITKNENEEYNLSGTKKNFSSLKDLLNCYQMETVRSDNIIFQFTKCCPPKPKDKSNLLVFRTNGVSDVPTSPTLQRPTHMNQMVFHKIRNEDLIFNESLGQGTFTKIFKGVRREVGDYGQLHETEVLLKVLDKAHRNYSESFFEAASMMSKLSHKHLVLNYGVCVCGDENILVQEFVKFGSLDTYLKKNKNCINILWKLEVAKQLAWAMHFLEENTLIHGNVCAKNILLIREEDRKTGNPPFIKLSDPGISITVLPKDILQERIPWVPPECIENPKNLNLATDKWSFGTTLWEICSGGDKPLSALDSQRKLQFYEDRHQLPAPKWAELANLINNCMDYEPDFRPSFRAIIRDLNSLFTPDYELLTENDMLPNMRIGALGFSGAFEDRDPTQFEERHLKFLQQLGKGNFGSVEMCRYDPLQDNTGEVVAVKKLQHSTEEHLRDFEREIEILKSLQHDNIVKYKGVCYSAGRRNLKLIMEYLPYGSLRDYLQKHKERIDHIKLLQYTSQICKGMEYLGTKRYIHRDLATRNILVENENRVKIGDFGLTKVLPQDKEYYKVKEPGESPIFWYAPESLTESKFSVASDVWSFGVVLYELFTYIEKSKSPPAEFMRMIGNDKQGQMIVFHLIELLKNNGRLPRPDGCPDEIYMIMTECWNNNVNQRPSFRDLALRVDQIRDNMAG

SMILES	IC50 (JAK2V617F)	IC50 (Ba/F3, irf1 reporter)	IC50 (HEL, irf1 reporter)
Cc1ccc(O)c(NC(=O)COc2ccc(Cl)cc2)c1	1.51 µM		
O=C(Nc1cccc2c1[nH]c1ccccc12)C(F)(F)F		18.9 µM	3.68 µM
Cc1ccc(Cn2ccsc2=NC(=O)CCl)cc1		6.74 µM	3.11 µM
CCS(=O)(=O)c1ccc(O)c(NC(=O)COc2cccc(C)c2)c1	> 40 µM (inactive)		
COc1ccc(C=CC(=O)c2c3c(c(C)[nH]c2=O)CCCC3)cc1	6.94 µM	> 40 µM (inactive)	> 40 µM (inactive)
COc1ccc(OCC(=O)Nc2cc(C)ccc2O)cc1	3.4 µM		
Oc1ccc(Cl)cc1N=Cc1sc2ccccc2c1Cl		3.42 µM	5.53 µM
COc1cc2ncnc(Sc3ccc(C)cc3)c2cc1OC	> 40 µM (inactive)		4.55 µM
Cc1cccc(OCC(=O)Nc2cc(C)c(C)cc2O)c1	> 40 µM (inactive)		
CCOc1ccc(Nc2nc(N)nc(CCl)n2)cc1		11.2 µM	0.452 µM
Cc1cccc(OCC(=O)Nc2cccc(O)c2)c1	> 40 µM (inactive)		> 40 µM (inactive)
C/C(=C\c1ccccc1F)C(=O)c1c(C)cc(C)[nH]c1=O	> 40 µM (inactive)	> 40 µM (inactive)	3.24 µM
Cc1cccc(NC(=O)c2ccc([N+](=O)[O-])o2)c1		6.3 µM	10.5 µM
Cc1oc2c(O)c(O)ccc2c(=O)c1-c1cnn(-c2ccccc2)c1		12.8 µM	8.52 µM
COCCOc1cc2ncnc(Nc3cccc(C#Cc4ccc(O)cc4)c3)c2cc1OCCOC	2.74 µM		0.0948 µM
COc1cc2ncc(-c3ccccc3)nc2cc1OC	> 40 µM (inactive)	> 40 µM (inactive)	0.69 µM
Clc1ccc(-n2nnnc2Sc2ncnc3sccc23)cc1		1.19 µM	23.3 µM
Cc1nc2c(=O)n(C)c(=O)n(C)c2nc1Cl		1.97 µM	15.7 µM
O=C(/C(=N/N=C/c1ccc(O)c(O)c1)c1ccccc1)c1ccccc1		6.61 µM	9.46 µM
COc1cc2ncnc(N[C@H](C)c3ccccc3)c2cc1OC	3.18 µM		13.1 µM
N#C/C(=C\c1ccc(O)c(O)c1)C(=O)NCCCc1ccccc1		6.03 µM	16.1 µM
O=C(O)c1[nH]c(=O)[nH]c(=O)c1F		> 40 µM (inactive)	> 40 µM (inactive)
O=C(Nc1cccc(NC(=O)c2cccs2)c1)c1ccc([N+](=O)[O-])o1		4.5 µM	3.31 µM

SMILES	IC50 (JAK2V617F)	IC50 (Ba/F3, irf1 reporter)	IC50 (HEL, irf1 reporter)
O=C(OCn1ncc(Cl)c(Cl)c1=O)c1ccccc1Cl		4.03 µM	4.45 µM
CN(c1ccccc1)S(=O)(=O)c1cccc(C(=O)NCCc2ccc(O)c(O)c2)c1		3.02 µM	2.97 µM
COc1ccc(-c2cc(-c3cc(C)ccc3O)[nH]n2)cc1		7.06 µM	1.82 µM
CC(C)(C)/C(O)=C/c1nc2cc(Cl)ccc2oc1=O		4.13 µM	12.6 µM
CCC(C)Nc1ncnc2cc(OC)c(OC)cc12 (stereo not given)	1.79 µM		> 40 µM (inactive)
Cc1cccc(OCC(=O)Nc2ccccc2F)c1	> 40 µM (inactive)		> 40 µM (inactive)
O=C(CCl)N(C/C=C/c1ccccc1)c1ccc2c(c1)OCCO2		0.499 µM	12 µM
Cc1cc2ncc(-c3ccc(O)c(O)c3)nc2cc1C	0.84 µM	0.104 µM	3.19 µM
COc1cc(/C=C(\C#N)C(N)=O)cc(CSc2nc3ccccc3s2)c1O	6.78 µM	3.35 µM	4.15 µM
COc1ccccc1C(C[N+](=O)[O-])c1c(N)n(C)c(=O)n(C)c1=O (stereo not given)		6.82 µM	17 µM
CN(C)C(=S)SSC(=S)N(C)C		2.38 µM	13.5 µM
Cc1cc2[nH]c3c(c[n+](C)c4ccccc34)c2cc1C		7.72 µM	7.35 µM
COCCOc1cc2ncnc(Nc3cccc(C#Cc4ccc(-c5ccccc5)cc4)c3)c2cc1OCCOC	3.81 µM		> 40 µM (inactive)
O=C1C=C(Nc2ccc(O)cc2)C(=O)c2ccccc21		7.94 µM	34.7 µM
Cc1ccc(O)c(NC(=O)COc2cccc(C)c2C)c1	> 40 µM (inactive)		
CCCC(=O)N(C1CC(C)C(C#N)(C#N)C1(C#N)C#N)N(C)C (stereo not given)		0.452 µM	5.75 µM
CC(C)C1C(C#N)=C(N)Oc2n[nH]c(-c3ccc4ccccc4c3)c21 (stereo not given)		4.7 µM	16.1 µM
COc1cc2ncnc(Nc3cccc(C)c3)c2cc1OC	> 40 µM (inactive)		7.18 µM
Cc1ccc(C=CC(=O)c2c3c(c(C)[nH]c2=O)CCCC3)cc1	3.38 µM	6.04 µM	23.9 µM
COc1ccccc1N(C(=O)CCl)c1cn(C(C)=O)c2ccccc12		2.17 µM	9.3 µM
Cc1ccc(O)c(NC(=O)COc2cc(C)ccc2C)c1	2.23 µM		
COc1cc2ncnc(Sc3ccc(Cl)cc3)c2cc1OC	> 40 µM (inactive)		> 40 µM (inactive)
